According to patent US20060105013A1, “Osteopontin-coated surfaces and methods of use” (priority 2000, published 2006):

Tests used:
HOS cells = assay: Attachment of HOS cells to plastic, glass or chromocobalt surfaces coated with OPN; assay type: cell-based, human; details: 1 hour
Procedure: 500 cells were plated on coated plastic, glass or chromocobalt surfaces and incubated at 37° C. in a humidified atmosphere (95% air 5% CO2). Surfaces were coated with either human recombinant phosphorylated OPN (rhOPN) or unphosphorylated OPN. Fibronectin coated surfaces were used as a control. After 1 hour, unattached cells were removed and the surfaces were washed with PBS. The total number of attached cells was determined for the total cpm released for the surfaces after the cells were lysed with 10% TCA and solubilized in 5 ml scintillation fluid. All measurements were done in triplicates.

canine model [1] = assay: Osseointegration of coated TPS dental implants in canine model (bone to implant contact, bone density); assay type: in vivo, dog; details: coating 200 μg/ml
Description: Canine models allow the use of implant designs and sizes commonly used in clinical applications.
Mandibular premolars and first molars were extracted bilaterally in a total of twelve dogs. After a healing period of three months, 6 implants TPS (ITI 4.1×8 mm) were placed in each mandibular quadrant. Test coatings of rOPN and mOC-1016 and non-coated TPS control wre used. A randomized distrubution of tests and controls were incorporated.
Large hounds were used in this Example. For all surgical procedures (extractions, implant placement, suture removal), after sedation with acepromazine (0.1 mg/kgS.C.), the animals were anesthetized using pentobarbitol (20 mg/kg I.V.). Antibiotics (bicillin 200,000 u I.M.) and ibuprofen for pain control (200 mg/dog/day P.O.) were given for extraction and implant placement surgeries. For sacrifice, an overdose of pentobarbitol (50 mg/kg I.V. after sedation with acepromazine 0.1 mg/kg S.C.) was administered.
The implant and it's surrounding tissue were dissected in block, fixed in 4% formaldehyde and imbedded in PMMA. The osseointegration of the implant was measured as percent of directly apposed bone versus total implant area by contour analysis using an image analysis system. The extent of new mineralized bone (in percent) in the area between the major and minor diameter of the implant was also determined.

canine model [2] = assay: Safety assessment (serum chemistry, hematology, antibody) after coated implant treatment in dogs; assay type: in vivo, dog; details: dogs with coated implants; vs baseline
Description: The issue of safety was also addressed by assessing the serum chemistry, hematology and antibody results following treatment. […] Therefore, rOPN and OC-1016 are safe based upon these evaluations.

[3] = tested on: human osteoprogenitor cells; assay: Peptide binding: attachment and spreading of human osteoprogenitor cells on coated plates; assay type: cell-based
Procedure: Example 11 analyzes the binding and cell spread activity of various peptides. The activities were measured in 24-well plates that were coated overnight at 4° C. with 10 μg/ml of the indicated ligand or peptide and then blocked for one hour at room temperature with 10 mg/ml BSA (Bovine Serum Albumin) in PBS (Phosphate Buffered Saline). To preserve the integrity of the adhesion receptors osteoprogenitor cells were harvested from sub-confluent cultures by non-enzymatic cell dissociation solution (Sigma, St. Louis, Mo.). Cells were washed twice with PBS and re-suspended at a concentration of 1×10^5 cells/ml of sterile Ca^2+- and Mg^2+-free PBS, supplemented with 0.1% BSA and 1 mM sodium pyruvate. 5×10^4 cells were incubated in each well and, after one hour at 37° C., the wells were washed three times with 0.5 ml PBS to remove non-adherent cells, fixed in 1% glutaraldehyde in 0.1 M cacodylate buffer (pH 7.4) at room temperature for one hour then stained with toluidine blue and hematoxylin. The total number of attached or spread cells in each well were counted microscopically using a Nikon Eclipse microscope equipped with a Sony digital camera. Total number of attached or spread cells were quantified using an Optima 5.2 image analysis system. Each experiment was done in triplicate and is reported as mean+/−standard error. To minimize variability inherent to cell attachment studies cells were scored as attached only when a defined nucleus observed accompanied by a transition from round to cuboidal cell morphology. Round cells that are loosely attached with no defined nucleus were scored as non-attached. These cells can be removed with repeated washes. The viability of the cells was measured before and after the termination of the experiments and only data from experiments with greater than 95% cell viability were used. […] Cell spreading was determined by membrane contour analysis and was scored according to increase in cell volume/surface area. Because of this change in cell volume/surface area, cell spreading is a measure of a change in cellular development. In some experiments, cell spreading was also assessed by the formation of stress fibers. The formation of stress fibers and/or changes in cell volume/surface area are each characteristics of cells undergoing differentiation. Each experiment was performed in quadruplicate wells and repeated three times.
5000 total human osteoprogenitor cells were plated on either uncoated plates or coated and incubated at 37° C. in a humidified atmosphere (95% air, 5% CO2). After 30 minutes, unattached cells were removed and the plates were washed with PBS. The total number of attached cells was determined as described in the materials and methods. In some experiments (labeled with an “#” in Table 8), antibodies ([…]) against various integrins were incubated with the cells for 15 minutes prior to plating.

CD44 (human) = CD44 (human) (UniProt P16070); assay: cell-based or functional assay
Chain of UniProt P16070 (P16070 21-742): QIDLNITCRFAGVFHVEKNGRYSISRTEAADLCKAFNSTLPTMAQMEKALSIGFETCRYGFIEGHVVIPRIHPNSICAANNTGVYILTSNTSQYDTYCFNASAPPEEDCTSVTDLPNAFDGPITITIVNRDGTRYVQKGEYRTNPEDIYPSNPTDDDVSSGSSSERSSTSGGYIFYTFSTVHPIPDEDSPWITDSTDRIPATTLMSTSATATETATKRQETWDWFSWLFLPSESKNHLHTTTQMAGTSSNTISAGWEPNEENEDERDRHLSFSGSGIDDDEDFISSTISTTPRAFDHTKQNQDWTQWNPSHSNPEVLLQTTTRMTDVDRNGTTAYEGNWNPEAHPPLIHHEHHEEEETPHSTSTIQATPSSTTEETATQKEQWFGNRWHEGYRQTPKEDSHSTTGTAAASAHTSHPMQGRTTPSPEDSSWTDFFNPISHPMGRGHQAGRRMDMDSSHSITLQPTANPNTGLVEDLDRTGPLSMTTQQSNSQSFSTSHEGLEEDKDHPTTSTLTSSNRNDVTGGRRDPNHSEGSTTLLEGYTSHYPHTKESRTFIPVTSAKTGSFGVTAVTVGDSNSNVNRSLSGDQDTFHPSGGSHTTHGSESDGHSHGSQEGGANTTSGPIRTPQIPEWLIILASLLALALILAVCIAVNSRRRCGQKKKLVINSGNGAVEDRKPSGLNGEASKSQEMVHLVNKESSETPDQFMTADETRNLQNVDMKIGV

αvβ3 integrin (human) = αvβ3 integrin (human) (UniProt P06756); assay: cell-based or functional assay
Chain of UniProt P06756 (P06756 31-1048, chain 1 of 2): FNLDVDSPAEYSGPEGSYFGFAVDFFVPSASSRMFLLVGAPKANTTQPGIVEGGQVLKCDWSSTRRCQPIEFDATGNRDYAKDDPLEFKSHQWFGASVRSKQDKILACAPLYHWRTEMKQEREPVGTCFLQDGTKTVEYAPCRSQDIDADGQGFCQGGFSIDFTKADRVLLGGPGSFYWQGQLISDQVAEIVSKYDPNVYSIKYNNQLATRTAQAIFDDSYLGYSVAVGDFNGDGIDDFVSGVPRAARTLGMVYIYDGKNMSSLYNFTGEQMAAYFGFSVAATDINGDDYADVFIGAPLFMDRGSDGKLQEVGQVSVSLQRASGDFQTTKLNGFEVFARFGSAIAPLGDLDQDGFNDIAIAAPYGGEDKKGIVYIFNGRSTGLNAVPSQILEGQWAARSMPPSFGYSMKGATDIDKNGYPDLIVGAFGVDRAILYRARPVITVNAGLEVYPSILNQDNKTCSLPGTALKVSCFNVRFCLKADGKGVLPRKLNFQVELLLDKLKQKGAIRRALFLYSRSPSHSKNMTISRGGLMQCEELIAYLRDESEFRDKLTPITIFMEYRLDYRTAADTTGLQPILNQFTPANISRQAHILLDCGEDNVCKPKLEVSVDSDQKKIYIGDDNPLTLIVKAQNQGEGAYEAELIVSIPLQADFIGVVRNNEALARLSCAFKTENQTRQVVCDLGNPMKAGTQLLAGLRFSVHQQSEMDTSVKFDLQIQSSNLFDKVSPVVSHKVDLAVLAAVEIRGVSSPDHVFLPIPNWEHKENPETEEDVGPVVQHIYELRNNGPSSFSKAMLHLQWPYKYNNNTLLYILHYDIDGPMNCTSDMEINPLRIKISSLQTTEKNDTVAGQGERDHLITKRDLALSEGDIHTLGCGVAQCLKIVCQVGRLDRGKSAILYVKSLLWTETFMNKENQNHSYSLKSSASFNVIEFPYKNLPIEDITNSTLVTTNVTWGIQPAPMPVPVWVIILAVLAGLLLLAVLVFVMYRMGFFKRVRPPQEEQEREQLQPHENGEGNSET
Chain of UniProt P06756 (P05106 27-788, chain 2 of 2, further chain): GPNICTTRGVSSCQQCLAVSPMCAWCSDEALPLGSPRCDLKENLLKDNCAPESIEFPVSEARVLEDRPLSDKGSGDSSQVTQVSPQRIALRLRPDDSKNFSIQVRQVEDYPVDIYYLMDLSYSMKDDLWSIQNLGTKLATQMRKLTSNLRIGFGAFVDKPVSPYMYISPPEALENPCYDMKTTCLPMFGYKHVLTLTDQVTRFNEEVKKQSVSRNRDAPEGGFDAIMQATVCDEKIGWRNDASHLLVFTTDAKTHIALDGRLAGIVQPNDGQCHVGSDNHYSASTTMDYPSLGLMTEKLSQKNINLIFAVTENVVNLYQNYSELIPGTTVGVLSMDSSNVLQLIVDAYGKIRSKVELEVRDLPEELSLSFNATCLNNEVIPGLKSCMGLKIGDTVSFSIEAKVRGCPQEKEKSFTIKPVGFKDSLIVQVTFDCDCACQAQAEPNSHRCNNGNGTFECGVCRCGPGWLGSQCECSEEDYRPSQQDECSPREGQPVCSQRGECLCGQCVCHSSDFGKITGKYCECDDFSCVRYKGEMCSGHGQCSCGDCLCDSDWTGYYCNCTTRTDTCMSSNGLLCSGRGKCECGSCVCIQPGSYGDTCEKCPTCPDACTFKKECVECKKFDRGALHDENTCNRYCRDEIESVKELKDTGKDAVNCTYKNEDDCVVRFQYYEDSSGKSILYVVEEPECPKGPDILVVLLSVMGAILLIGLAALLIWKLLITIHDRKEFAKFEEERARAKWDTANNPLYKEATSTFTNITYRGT

αβ1 integrin (human) = αβ1 integrin (human) (UniProt P05556); assay: cell-based or functional assay
Chain of UniProt P05556 (P05556 21-798): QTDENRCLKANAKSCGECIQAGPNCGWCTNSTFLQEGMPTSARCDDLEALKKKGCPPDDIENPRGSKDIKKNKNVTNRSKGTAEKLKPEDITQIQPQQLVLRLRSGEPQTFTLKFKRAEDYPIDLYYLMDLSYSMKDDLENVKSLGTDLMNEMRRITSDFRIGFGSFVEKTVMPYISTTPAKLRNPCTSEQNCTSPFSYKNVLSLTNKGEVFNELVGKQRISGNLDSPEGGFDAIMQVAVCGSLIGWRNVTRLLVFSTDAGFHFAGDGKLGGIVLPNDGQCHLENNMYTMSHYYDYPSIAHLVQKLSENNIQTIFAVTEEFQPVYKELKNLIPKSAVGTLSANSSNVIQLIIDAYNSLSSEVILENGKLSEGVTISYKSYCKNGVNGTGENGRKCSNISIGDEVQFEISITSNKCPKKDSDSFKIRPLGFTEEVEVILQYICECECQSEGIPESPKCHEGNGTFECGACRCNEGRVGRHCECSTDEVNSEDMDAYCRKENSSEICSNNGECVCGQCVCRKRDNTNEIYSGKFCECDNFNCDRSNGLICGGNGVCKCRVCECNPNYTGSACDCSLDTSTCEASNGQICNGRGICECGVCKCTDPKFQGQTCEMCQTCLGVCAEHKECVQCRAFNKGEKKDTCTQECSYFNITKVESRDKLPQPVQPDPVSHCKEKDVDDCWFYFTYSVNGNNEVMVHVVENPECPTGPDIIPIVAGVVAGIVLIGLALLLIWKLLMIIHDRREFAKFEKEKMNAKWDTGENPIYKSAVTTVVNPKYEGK

[4] = cells pre-incubated with Anti-CD44
[5] = cells pre-incubated with Anti-αvβ3
[6] = cells pre-incubated with Anti-αβ1

Row | Substance | % total attached (HOS cells; Plastic surface) [%] | % total attached (HOS cells; chromocobalt (CrCo) surface) [%] | % total attached (HOS cells; glass surface) [%] | Mean Percent Bone Density (canine model [1]; 4 weeks) [%] | Mean Percent Bone to Implant Contact (canine model [1]; 4 weeks) [%] | Mean Percent Bone to Implant Contact (canine model [1]; 12 weeks) [%] | % Spread ([3]; no antibody, coated plates) [%] | % total attached cells ([3]; no antibody, coated plates) [%] | other results
1 | OPN: Table 2: unphosphorylated OPN used as surface coating | 43.6 | 4 | 37.2 | 70.5 | 65.6 | 62.5 | – | – | Mean Percent Bone Density (canine model [1]; 12 weeks): 56.9%
2 | rOPN: Recombinant Osteopontin coated on TPS dental implants; printed as OPN in Tables 4-7 | – | – | – | 70.9 | 65.6 | 62.5 | – | – | serum chemistry, hematology and antibody results following treatment (canine model [2]): no clinically significant differences from baseline
3 | Osteopontin: osteopontin used to coat plates in Table 8; form not specified | – | – | – | – | – | – | 78.4 | 78.4 | % Spread [3, 4]: 46.4%; % total attached cells [3, 4]: 66%; % Spread [3, 5]: 24.8%; % total attached cells [3, 5]: 69.2%; % Spread [3, 6]: 56.6%; % total attached cells [3, 6]: 74.8%
4 | Fibronectin [reference compound] | 91.6 | 54.8 | 89.6 | – | – | – | – | – | –
5 | DTFTPIVPTVDVPNGRFDSLAYGLKSKSKKFQ [SEQ ID NO: 13] | – | – | – | – | – | – | 100.0 | 91.1 | –
6 | Osteopontin (from UniProt P10451 17-314) (ligand) | – | – | – | – | – | – | – | – | % Spread (# Anti-CD44) (CD44 (human)): 46.4%; % total attached cells (# Anti-CD44) (CD44 (human)): 66%; % Spread (# Anti-αvβ3) (αvβ3 integrin (human)): 24.8%; % total attached cells (# Anti-αvβ3) (αvβ3 integrin (human)): 69.2%; % Spread (# Anti-αβ1) (αβ1 integrin (human)): 56.6%; % total attached cells (# Anti-αβ1) (αβ1 integrin (human)): 74.8%
